Source: PubChem BioAssay (NCI)
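Values below derive from 48-hour exposures of cells grown in 96-well plates, with endpoints linearly interpolated between the two concentrations bracketing the appropriate inhibition level. At the GI50, growth is halved. TGI: concentration producing complete growth inhibition.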

Legend:
Test in all cases: NCI-60 cell line screen, 48 h
SW-620 colon = test system: SW-620 colon
DU-145 prostate = test system: DU-145 prostate
BT-549 breast = test system: BT-549 breast
A498 renal = test system: A498 renal
NCI/ADR-RES ovarian = test system: NCI/ADR-RES ovarian
HCT-116 colon = test system: HCT-116 colon
786-0 renal = test system: 786-0 renal
SK-MEL-5 melanoma = test system: SK-MEL-5 melanoma
UO-31 renal = test system: UO-31 renal
SK-MEL-28 melanoma = test system: SK-MEL-28 melanoma

| Compound | TGI (SW-620 colon) [µM] | TGI (DU-145 prostate) [µM] | TGI (BT-549 breast) [µM] | TGI (A498 renal) [µM] | TGI (NCI/ADR-RES ovarian) [µM] | TGI (HCT-116 colon) [µM] | TGI (786-0 renal) [µM] | TGI (SK-MEL-5 melanoma) [µM] | TGI (UO-31 renal) [µM] | TGI (SK-MEL-28 melanoma) [µM] | GI50 (DU-145 prostate) [µM] | GI50 (BT-549 breast) [µM] | GI50 (A498 renal) [µM] | GI50 (SK-MEL-28 melanoma) [µM] | GI50 (HCT-116 colon) [µM] | GI50 (SK-MEL-5 melanoma) [µM] | GI50 (UO-31 renal) [µM] | GI50 (NCI/ADR-RES ovarian) [µM] | GI50 (SW-620 colon) [µM] |
| --- | --- | --- | --- | --- | --- | --- | --- | --- | --- | --- | --- | --- | --- | --- | --- | --- | --- | --- | --- |
| COc1ccc(C2(c3ccc(OC)cc3)OC(=O)c3cccc4cccc2c34)cc1 | > 100 | > 100 | > 100 | > 100 | 7.55 | > 100 | > 100 | > 100 | > 100 | – | – | – | – | – | – | – | – | – | – |
| O=c1[nH]c(=O)n(C2OC(COP(=O)(O)OP(=O)(O)O)C(O)C2O)cc1F (stereo not given) | > 50 | – | – | > 50 | – | > 17 | 7.09 | > 50 | 20.4 | > 50 | – | – | – | – | – | – | – | – | – |
| CC1=CC(O)C(O)C2(C)C1CC1OC(=O)C(O)C3C(C)C(O)C4(O)OCC13C42 (stereo not given) | 224 | – | – | 72.1 | > 625 | > 625 | – | 142 | 518 | 502 | – | – | – | – | – | – | – | – | – |
| O=C1c2[nH]cc(CN3CCNCC3)c2C(=O)c2c1c(O)c1ccccc1c2O | – | 3.06 | 20.3 | 2.38 | – | 2.25 | – | 3.14 | 5.96 | 3.6 | 1.67 | 4.86 | 1.01 | 1.62 | 1.07 | 1.64 | 1.7 | – | – |
| CC1(C)COC(c2cccc(C3=NC(C)(C)CO3)c2Br)=N1 | > 100 | > 100 | > 100 | – | > 100 | > 100 | > 100 | > 100 | > 100 | > 100 | – | – | – | – | – | – | – | – | – |
| CC1(O)C=CC2CCC1C2O (stereo not given) | – | – | – | > 100 | – | 36.2 | 75.5 | > 100 | > 100 | > 100 | – | – | – | – | – | – | – | – | – |
| C/C(=N\NC(N)=O)C(CN1CCCCC1)C(c1ccccc1)c1c(O)c2ccccc2oc1=O (stereo not given) | > 100 | > 100 | > 100 | > 100 | > 100 | > 100 | > 59.5 | > 100 | > 100 | > 100 | > 100 | 86.7 | – | – | – | – | – | > 100 | – |
| Nc1nc(Cl)cc(N=Nc2ccccc2)n1 | > 100 | > 100 | > 100 | > 100 | > 100 | 32.2 | > 100 | 40 | > 100 | > 100 | – | – | – | – | – | – | – | – | – |
| NC(Cc1cc(I)c(O)c(I)c1)C(=O)O (stereo not given) | > 500 | – | – | > 500 | > 316 | > 500 | – | > 500 | > 500 | > 500 | – | – | – | – | – | – | – | – | – |
| COc1cccc(NC(=O)CSc2nnc(-c3ccc(N=Cc4ccc(Cl)cc4)cc3)o2)c1 | 37.9 | – | – | – | – | 36.3 | 57.5 | 34.6 | 32.7 | 37.5 | – | – | – | – | – | – | – | – | – |
| N#Cc1c(NC(=O)c2ccccc2)sc2c1CCC(=O)C2 | 3.69 | > 100 | – | 41.2 | 11.8 | – | – | 3.22 | 2.24 | – | 2.98 | – | 8.83 | – | – | 1.65 | 1.05 | 1.33 | 0.524 |
| NC(N)=N/N=C/c1c(-c2ccc([N+](=O)[O-])cc2)nc2sccn12 | – | 3.21 | 3.44 | 3.21 | > 100 | 3.05 | 3.07 | 7.98 | 6.13 | 3.74 | – | – | – | – | – | – | – | – | – |
| COC(=O)c1ccc(-c2nc(C#N)c(N)o2)cc1 | > 100 | > 100 | > 100 | – | – | > 100 | > 100 | > 100 | > 100 | > 100 | – | – | – | – | – | – | – | – | – |
| O=S1(=O)NNC(=NCc2ccc(Cl)cc2)c2ccccc21 | > 100 | – | – | > 100 | – | > 100 | > 100 | > 100 | > 100 | – | – | – | – | – | – | – | – | – | – |
| CN1CCn2c(Br)ccc2C1=O | > 100 | – | – | > 100 | – | > 100 | > 100 | – | > 100 | > 100 | – | – | – | – | – | – | – | – | – |
| O=C(c1ccccc1)c1c(C(F)(F)F)n([O-])c2ccccc2[n+]1=O | > 100 | 4.54 | 1.93 | 4.72 | > 100 | > 100 | > 100 | – | 2.27 | 4.33 | – | – | – | – | – | – | – | – | – |
| CCCCc1c2c(nc3c1CCc1cc4c(nc1-3)-c1nc3c(c(CCCC)c1CC4)CCC/C3=C\c1ccccc1)/C(=C/c1ccccc1)CCC2 | > 100 | – | – | > 100 | – | > 100 | > 100 | > 100 | > 100 | > 100 | – | – | – | – | – | – | – | – | – |
| COc1cc2cc(C(=O)N3CC(CCl)c4c3cc(N)c3ccccc43)[nH]c2cc1OCCN(C)C (stereo not given) | – | 0.0246 | 0.409 | < 0.005 | 0.175 | 0.623 | – | – | < 0.005 | – | – | – | – | – | – | – | – | – | – |
| COc1cc(C2C3=C(CCC3=O)Oc3cc4c(cc32)OCO4)cc(OC)c1OC (stereo not given) | > 100 | – | – | – | – | > 100 | – | 15.2 | > 100 | > 100 | – | – | – | – | – | – | – | – | – |
| CCOC(=O)c1cc2c(OC(C)=O)ccc(OC(C)=O)c2s1 | – | 17.1 | 4.97 | 12.5 | 5.79 | 9 | 6.24 | 6.69 | 2.76 | 5.45 | – | – | – | – | – | – | – | – | – |
